Experimental data from US20250255848A1, “SUBSTITUTED 6,7-DIHYDRO-5H-BENZO[7]ANNULENE DERIVATIVES, PROCESSES FOR THEIR PREPARATION AND THERAPEUTIC USES THEREOF” (SANOFI, priority 2022, published 2025).

Biological target: ERα (Homo sapiens (Human), UniProt P03372)
Assay: Estrogen receptor degradation activity: breast cancer cell ERα in cell western assay
Format: cell-based
Conditions: MCF7 cells; for % Degradation At 0.3 μM: 4 hours, normalised to fulvestrant 0.1 μM and DMSO
Description: Said test involves measuring the in vitro degradation activity of the compounds of the Table 1a.
The measurements of the degradation activities were made using a breast cancer cell ERα in cell western assay as described hereunder.
MCF7 cells (ATCC) were seeded in 384 wells microplate (collagen coated) at a concentration of 10000 cells/30 μL per well in red phenol free MEM alpha medium (invitrogen) containing 5% charcoal dextran striped FBS. The following day, 9 points serial 1:5 dilution of each compound was added to the cells in 2.5 μL at final concentrations ranging from 0.3-0.0000018 μM (in table 2), or 0.1 μM for fulvestrant (using as positive control). At 4 hours post compound addition the cells were fixed by adding 25 μL of formalin (final concentration 5% formalin containing 0.1% triton) for 10 minutes at room temperature and then washed twice with PBS. Then, 50 μL of LI-COR blocking buffer containing 0.1% Triton was added to plate for 30 minutes at room temperature. LI-COR blocking buffer was removed and cells were incubated overnight at cold room with 50 μL anti-ER rabbit monoclonal antibody (Thermo scientific MA1-39540) diluted at 1:1000 in LI-COR blocking buffer containing 0.1% tween-20. Wells which were treated with blocking buffer but no antibody were used as background control. Wells were washed twice with PBS (0.1% tween-20) and incubated at 37° C. for 60 minutes in LI-COR (0.1% tween-20) containing goat anti-rabbit antibody Alexa 488 (1:1000) and Syto-64 a DNA dye (2 μM final concentration). Cells were then washed 3 times in PBS and scanned in ACUMEN explorer (TTP-Labtech). Integrated intensities in the green fluorescence and red fluorescence were measured to determine the levels of ERα and DNA respectively.
The degradation activity with respect to estrogen receptors in this test is given by the concentration which degrades 50% of the estrogen receptor (or IC50) in nM.
The % of ERα levels decrease were determined as follows: % inhibition=100*(1−(sample−fulvestrant:DMSO−fulvestrant)).

[1] = 4 hours post compound addition, concentration which degrades 50% of the estrogen receptor

ERα, sequence (P03372 whole entry): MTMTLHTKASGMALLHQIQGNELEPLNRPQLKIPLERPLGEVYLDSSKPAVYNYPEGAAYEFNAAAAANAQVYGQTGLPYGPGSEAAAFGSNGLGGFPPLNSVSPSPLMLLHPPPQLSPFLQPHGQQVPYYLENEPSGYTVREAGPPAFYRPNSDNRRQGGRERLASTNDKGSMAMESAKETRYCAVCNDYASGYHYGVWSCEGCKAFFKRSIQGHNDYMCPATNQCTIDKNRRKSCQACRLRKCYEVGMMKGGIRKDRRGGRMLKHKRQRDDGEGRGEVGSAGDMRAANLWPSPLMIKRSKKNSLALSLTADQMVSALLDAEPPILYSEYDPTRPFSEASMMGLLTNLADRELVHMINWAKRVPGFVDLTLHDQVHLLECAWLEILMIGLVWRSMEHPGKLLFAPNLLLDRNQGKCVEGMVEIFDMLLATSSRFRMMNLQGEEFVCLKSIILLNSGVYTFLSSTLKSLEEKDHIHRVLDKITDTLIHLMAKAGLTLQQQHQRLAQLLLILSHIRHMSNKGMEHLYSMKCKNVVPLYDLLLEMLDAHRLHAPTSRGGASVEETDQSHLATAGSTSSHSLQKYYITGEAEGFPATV

Row | Compound | % Degradation At 0.3 μM [%] | IC50 [1] [pM] | DC50 (4 hours post compound addition, concentration which degrades 50% of the estrogen receptor, read-out: Degradation IC50) [pM]
1 | Cc1cccc(C(F)(F)F)c1C1=C(c2ccc(C=C3CN(CCCF)C3)cc2)c2ccc(C(=O)O)cc2CCC1 [Compound 1, 9-(4-((1-(3-fluoropropyl)azetidin-3-ylidene)methyl)phenyl)-8-(2-methyl-6-(trifluoromethyl)phenyl)-6,7-dihydro-5H-benzo[7]annulene-3-carboxylic acid] | 92 | 300 | 
2 | Cc1cc(C2=C(c3ccc(C=C4CN(CCCF)C4)cc3)c3ccc(C(=O)O)cc3CCC2)c(C)cc1F [Compound 27, 8-(4-fluoro-2,5-dimethylphenyl)-9-(4-((1-(3-fluoropropyl)azetidin-3-ylidene)methyl)phenyl)-6,7-dihydro-5H-benzo[7]annulene-3-carboxylic acid] | 93 | 500 | 
3 | COc1ccc(C(F)F)c(C2=C(c3ccc(C=C4CN(CCCF)C4)cc3)c3ccc(C(=O)O)cc3CCC2)c1 [Compound 45, 8-(2-(difluoromethyl)-5-methoxyphenyl)-9-(4-((1-(3-fluoropropyl)azetidin-3-ylidene)methyl)phenyl)-6,7-dihydro-5H-benzo[7]annulene-3-carboxylic acid] | 93 | 600 | 
4 | COc1cc(C(F)F)ccc1C1=C(c2ccc(C=C3CN(CCCF)C3)cc2)c2ccc(C(=O)O)cc2CCC1 [Compound 29, 8-(4-(difluoromethyl)-2-methoxyphenyl)-9-(4-((1-(3-fluoropropyl)azetidin-3-ylidene)methyl)phenyl)-6,7-dihydro-5H-benzo[7]annulene-3-carboxylic acid] | 93 | 600 | 
5 | COc1cc(C)cc(C)c1C1=C(c2ccc(C=C3CN(CCCF)C3)cc2)c2ccc(C(=O)O)cc2CCC1 [Compound 14, 9-(4-((1-(3-fluoropropyl)azetidin-3-ylidene)methyl)phenyl)-8-(2-methoxy-4,6-dimethylphenyl)-6,7-dihydro-5H-benzo[7]annulene-3-carboxylic acid] | 91 | 600 | 

Other lines, results leading:

Row | % Degradation At 0.3 μM [%] | IC50 [1] [pM] | DC50 (4 hours post compound addition, concentration which degrades 50% of the estrogen receptor, read-out: Degradation IC50) [pM] | Compound
6 | 95 | 200 |  | Cc1ccc(F)c(C)c1C1=C(c2ccc(C=C3CN(CCCF)C3)cc2)c2ccc(C(=O)O)cc2CCC1 [Compound 75, 8-(3-fluoro-2,6-dimethylphenyl)-9-(4-((1-(3-fluoropropyl)azetidin-3-ylidene)methyl)phenyl)-6,7-dihydro-5H-benzo[7]annulene-3-carboxylic acid]
7 | 74 |  | 1300 | O=C(O)c1ccc2c(c1)CCCC(c1ccc(Cl)cc1Cl)=C2c1ccc(C=C2CN(CC(F)CF)C2)cc1 (single isomer, unassigned) [Compound 69, 8-(2,4-dichlorophenyl)-9-(4-((1-(2,3-difluoropropyl)azetidin-3-ylidene)methyl)phenyl)-6,7-dihydro-5H-benzo[7]annulene-3-carboxylic acid]
8 | 90 | 800 |  | CCc1cccc(CC)c1C1=C(c2ccc(C=C3CN(CCCF)C3)cc2)c2ccc(C(=O)O)cc2CCC1 [Compound 74, 8-(2,6-diethylphenyl)-9-(4-((1-(3-fluoropropyl)azetidin-3-ylidene)methyl)phenyl)-6,7-dihydro-5H-benzo[7]annulene-3-carboxylic acid]
9 | 92 | 900 |  | COc1cc(C(F)(F)F)ccc1C1=C(c2ccc(C=C3CN(CCCF)C3)cc2)c2ccc(C(=O)O)cc2CCC1 [Compound 59, 9-(4-((1-(3-fluoropropyl)azetidin-3-ylidene)methyl)phenyl)-8-(2-methoxy-4-(trifluoromethyl)phenyl)-6,7-dihydro-5H-benzo[7]annulene-3-carboxylic acid]
10 | 94 | 1000 |  | COc1c(C2=C(c3ccc(C=C4CN(CCCF)C4)cc3)c3ccc(C(=O)O)cc3CCC2)cccc1C(F)(F)F [Compound 63, 9-(4-((1-(3-fluoropropyl)azetidin-3-ylidene)methyl)phenyl)-8-(2-methoxy-3-(trifluoromethyl)phenyl)-6,7-dihydro-5H-benzo[7]annulene-3-carboxylic acid]
